This note sets out measurements from PubChem BioAssay (NCI).

Among the test systems are DMS 114 small cell lung; SNB-19 CNS; DLD-1 colon; SNB-78 CNS; LXFL 529 NSCLC; RXF-631 renal; TK-10 renal; KM20L2 colon; M19-MEL melanoma; K-562 leukemia; XF 498 CNS; HOP-18 NSCLC; DMS 273 small cell lung.
What all share (experiment): NCI tumour cell line growth inhibition, 48 h

SMILES strings stand for the structures.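 Grown in 96-well plates, cells were treated for 48 hours with each compound at five concentrations. Insufficient inhibition: endpoint recorded as highest concentration tested. Definition used: TGI = concentration required for complete inhibition of growth.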

Consider `C1=Cc2nc1c(-c1ccccc1)c1ccc([n-]1)c(-c1ccccc1)c1nc(c(-c3ccccc3)c3ccc([n-]3)c2-c2ccccc2)C=C1.[Zn+2]`, for which the TGI in the experiment on DMS 114 small cell lung, with SNB-19 CNS, with DLD-1 colon, with SNB-78 CNS, in the experiment on LXFL 529 NSCLC and in the experiment with RXF-631 renal was over 100 µM throughout. Moreover, the TGI in the experiment with TK-10 renal, in the experiment with KM20L2 colon, in the experiment with M19-MEL melanoma, in the experiment with K-562 leukemia and with XF 498 CNS was over 100 µM in each case.

As to `BrC12C3C4C5C(C(C43)C13OCCO3)C52` (configuration not stated), the TGI in the experiment with DMS 114 small cell lung, with HOP-18 NSCLC, with SNB-19 CNS, with DMS 273 small cell lung, in the experiment with DLD-1 colon and in the experiment on SNB-78 CNS was over 100 µM in each case. Besides, the TGI with LXFL 529 NSCLC, in the experiment on RXF-631 renal, in the experiment with TK-10 renal, in the experiment on KM20L2 colon, in the experiment with M19-MEL melanoma and in the experiment with K-562 leukemia was over 100 µM throughout. The same compound gave a TGI with XF 498 CNS of over 100 µM.

For `c1ccc2c(NCCCCCCCCNc3cccc4ccccc34)cccc2c1`, the TGI in the experiment with DMS 114 small cell lung is 68.2 µM; with HOP-18 NSCLC, 58.6 µM; in the experiment on SNB-19 CNS it was over 100 µM; with DMS 273 small cell lung, 80.6 µM; in the experiment with DLD-1 colon, over 100 µM; in the experiment with SNB-78 CNS, over 100 µM. Besides, the TGI with LXFL 529 NSCLC was 38.1 µM; in the experiment on RXF-631 renal, 34.5 µM; in the experiment with TK-10 renal it was 43.6 µM; with KM20L2 colon, over 100 µM; in the experiment with M19-MEL melanoma, over 10 µM; with K-562 leukemia, 80.9 µM. In the experiment with XF 498 CNS, this compound registered a TGI of over 100 µM.

`CC(C)C1=CC(=O)C(C)(C2=NC(C)(C)CO2)c2ccccc21` (configuration not stated): the TGI in the experiment on DMS 114 small cell lung, in the experiment on HOP-18 NSCLC, in the experiment with SNB-19 CNS, in the experiment with DMS 273 small cell lung, in the experiment on DLD-1 colon and in the experiment with LXFL 529 NSCLC was over 100 µM in each case. The TGI in the experiment with RXF-631 renal, in the experiment on TK-10 renal, in the experiment with KM20L2 colon, in the experiment with M19-MEL melanoma, in the experiment on K-562 leukemia and with XF 498 CNS was over 100 µM each time.

On to `CCCCC1(OC(=O)CCC(=O)O)CCC2(CCC(C)C(C/C=C(C)/C=C/C(O)C(C)/C=C/C(=O)O)O2)OC1CC/C(C)=C/C(=O)O` (configuration not stated), for which the TGI is 8.56 µM in the experiment with DMS 114 small cell lung; 29.8 µM with HOP-18 NSCLC; 11.8 µM with SNB-19 CNS; 18.2 µM in the experiment on DMS 273 small cell lung; 13.8 µM with DLD-1 colon; 7.75 µM in the experiment on SNB-78 CNS. The TGI in the experiment with LXFL 529 NSCLC came out at 3.83 µM; with RXF-631 renal, 5.7 µM; with TK-10 renal it was 58.5 µM; with KM20L2 colon it was 46.8 µM; with M19-MEL melanoma, 7.95 µM; in the experiment on K-562 leukemia, 9.99 µM. Besides, the TGI in the experiment with XF 498 CNS worked out at 4.66 µM.
